From patent EP2929883A1, “Pyrazole derivatives as dihydroorotate dehydrogenase (DHODH) inhibitors” (INSTITUT PASTEUR, priority 2014, dated 2015) come the findings set out here.

One test deals with measles virus. The test is described as follows: microbe, parasite or virus in culture. Conditions: Measles morbillivirus; for MIC50: 24 h; for IC50: HEK-293T, read-out: IC50 on the measles virus.
Another test has as its target T1, recombinant human DHODH (Homo sapiens, UniProt Q02127).
T1 construct: N-terminally truncated (first 29 amino acids) human DHODH; made in house; host or cells: E. coli BL21(DE3)/pDIA17
Briefly: recombinant DHODH enzymatic assay (DCIP reduction). Type of test: biochemical. Particulars: 25°C, DCIP reduction at 600 nm.

In brackets after ≈: the same amount, converted by molar mass.

T1 sequence (Q02127 29-395): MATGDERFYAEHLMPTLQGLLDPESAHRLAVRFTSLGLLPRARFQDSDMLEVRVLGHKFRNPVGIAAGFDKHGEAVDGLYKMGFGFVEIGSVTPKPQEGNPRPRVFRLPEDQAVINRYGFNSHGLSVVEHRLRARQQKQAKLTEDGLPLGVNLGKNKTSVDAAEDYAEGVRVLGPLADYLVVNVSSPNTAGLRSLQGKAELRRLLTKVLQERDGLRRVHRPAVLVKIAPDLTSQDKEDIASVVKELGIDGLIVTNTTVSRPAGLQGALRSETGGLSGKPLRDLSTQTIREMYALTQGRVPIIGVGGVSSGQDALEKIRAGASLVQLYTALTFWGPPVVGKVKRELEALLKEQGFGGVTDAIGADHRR
Procedure for recombinant human DHODH: Enzymatic assay DHODH activity was determined at 25°C following the reduction of DCIP at 600 nm (ε = 18,800 M^-1 cm^-1) on a spectrophotometer. […] The reaction medium used for this contained 50 mM Tris-HCl pH 8.0, 0.1% Triton X-100, 0.1 mM L-DHO, 0.025 mM CoQ1 and 0.06 mM DCIP. The reaction was started by addition of the enzyme.

Turning to `CC(C)Oc1nn(-c2ncc(C3CC3)cn2)cc1Oc1ccccc1F` [example 67, 5-cyclopropyl-2-(4-(2-fluorophenoxy)-3-isopropoxy-1H-pyrazol-1-yl)pyrimidine], in the test with measles virus, the MIC50 fell in the range of 0.0005 to 0.05 µM (≈ 0.000177 to 0.0177 µg/mL) and the IC50 (commonly the midpoint of a concentration-inhibition curve) was found to be 15 nM. Also, the IC50 at recombinant human DHODH worked out at 48 ± 7 nM.
Take `Cc1c(Cc2ccccc2)c(OC(C)C)nn1-c1ccc(C2CC2)cn1` [example 20, 2-(4-benzyl-3-isopropoxy-5-methyl-1H-pyrazol-1-yl)-5-cyclopropylpyridine]: in the test with measles virus, the MIC50 fell in the range of 0.0005 to 0.05 µM (≈ 0.000174 to 0.0174 µg/mL) and the IC50 worked out at 46 nM. Besides, the IC50 on recombinant human DHODH worked out at 130 ± 5 nM.
Taken in the same sequence, the figures for `CCOc1nn(-c2ncc(CC)cn2)c(C)c1Oc1ccccc1Br` [example 81, 2-(4-(2-bromophenoxy)-3-ethoxy-5-methyl-1H-pyrazol-1-yl)-5-ethylpyrimidine] were 0.05 to 0.5 µM (≈ 0.0202 to 0.202 µg/mL), 124 nM and 1150 ± 170 nM.
Consider `Cc1c(Cc2ccccc2F)c(OC(C)C)nn1-c1ncc(C2CC2)cn1` [example 10, 5-cyclopropyl-2-(4-(2-fluorobenzyl)-3-isopropoxy-5-methyl-1H-pyrazol-1-yl)pyrimidine], for which, in the test on measles virus, the MIC50 fell in the range of 0.0005 to 0.05 µM (≈ 0.000183 to 0.0183 µg/mL) and the IC50 came out at 1.1 nM. Further, the IC50 at recombinant human DHODH was determined as 13 ± 2 nM.
For `Cc1c(C(O)c2ccccc2)c(OC(C)C)nn1-c1ncc(C2CC2)cn1` (centres unmarked) [example 176, (1-(5-cyclopropylpyrimidin-2-yl)-3-isopropoxy-5-methyl-1H-pyrazol-4-yl)(phenyl)methanol] the same measures were 0.0005 to 0.05 µM (≈ 0.000182 to 0.0182 µg/mL), 1.4 nM and 16 ± 3 nM.
Take `c1ccc(-c2ccn(-c3ncc(C4CC4)cn3)n2)cc1` [example 122, 5-cyclopropyl-2-(3-phenyl-1H-pyrazol-1-yl)pyrimidine]: in the test on measles virus, the MIC50 was 0.5 to 5 µM (≈ 0.131 to 1.31 µg/mL) and the IC50 was found to be 3800 nM. In addition, on recombinant human DHODH, the IC50 worked out at 22800 ± 2800 nM.
`Cc1c(Oc2c(F)cccc2F)c(OC(C)C)nn1-c1ccc(C(C)(F)F)cn1` [example 91, 5-(1,1-difluoroethyl)-2-(4-(2,6-difluorophenoxy)-3-isopropoxy-5-methyl-1H-pyrazol-1-yl)pyridine] yielded an MIC50 against measles virus of 0.05 to 0.5 µM (≈ 0.0205 to 0.205 µg/mL).
Same read-out and setting: with `CC(C)Oc1nn(-c2ncc(C3CC3)cn2)cc1S(=O)(=O)c1ccccc1` [example 183, 5-cyclopropyl-2-(3-isopropoxy-4-(phenylsulfonyl)-1H-pyrazol-1-yl)pyrimidine] the figure was 0.0005 to 0.05 µM (≈ 0.000192 to 0.0192 µg/mL); with `CCOc1nn(-c2ccc(C3CC3)cn2)c(C)c1C(O)c1ccccc1` (centres unmarked) [example 177, (1-(5-cyclopropylpyridin-2-yl)-3-ethoxy-5-methyl-1H-pyrazol-4-yl)(phenyl)methanol], 0.0005 to 0.05 µM (≈ 0.000175 to 0.0175 µg/mL); with `Cc1c(Oc2c(F)cccc2F)c(OC(C)C)nn1-c1ccc(Cl)nn1` [example 15, 3-chloro-6-(4-(2,6-difluorophenoxy)-3-isopropoxy-5-methyl-1H-pyrazol-1-yl)pyridazine], 0.05 to 0.5 µM (≈ 0.019 to 0.19 µg/mL).
Regarding `CCOc1cc(Cc2ccccc2)n(-c2ncc(CC)cn2)n1` [example 2, 2-(5-benzyl-3-ethoxy-1H-pyrazol-1-yl)-5-ethylpyrimidine], the MIC50 in the test on measles virus was over 5 µM.
In the test on measles virus, `Cc1c(Cc2ccccc2)c(O)nn1-c1ncc(C2CC2)cn1` [example 136, 4-benzyl-1-(5-cyclopropylpyrimidin-2-yl)-5-methyl-1H-pyrazol-3-ol] came in with an MIC50 of 0.5 to 5 µM (≈ 0.153 to 1.53 µg/mL).
On the same count and under the same terms, next, `CCOc1nn(-c2ncc(CC)cn2)c(CN2CCOCC2)c1Cc1ccccc1` [example 115, 4-((4-benzyl-3-ethoxy-1-(5-ethylpyrimidin-2-yl)-1H-pyrazol-5-yl)methyl)morpholine]: over 5 µM; `CCCc1cnc(-n2nc(OC(C)C)c(Oc3c(F)cccc3F)c2C)nc1O` [example 117A, 2-(4-(2,6-difluorophenoxy)-3-isopropoxy-5-methyl-1H-pyrazol-1-yl)-5-propylpyrimidin-4-ol]: 0.05 to 0.5 µM (≈ 0.0202 to 0.202 µg/mL).
Still for that read-out and setting: next, `CCOc1nn(-c2ccc(C)nc2)c(C)c1Cc1ccccc1` [example 124, 5-(4-benzyl-3-ethoxy-5-methyl-1H-pyrazol-1-yl)-2-methylpyridine]: 0.5 to 5 µM (≈ 0.154 to 1.54 µg/mL).
The same measure, in the same setting: with `CCCc1cnc(-n2nc(OCC)c(Cc3ccccc3)c2C)nc1` [example 27, 2-(4-benzyl-3-ethoxy-5-methyl-1H-pyrazol-1-yl)-5-propylpyrimidine] the figure was 0.0005 to 0.05 µM (≈ 0.000168 to 0.0168 µg/mL); with `CCOc1nn(-c2ccccn2)c(C)c1Cc1cccc(Cl)c1` [example 163, 2-(4-(3-chlorobenzyl)-3-ethoxy-5-methyl-1H-pyrazol-1-yl)pyridine], over 5 µM.
As for `CCOc1nn(-c2ncc(CC)c(Cc3ccccc3)n2)cc1I` [example 167, 4-benzyl-2-(3-ethoxy-4-iodo-1H-pyrazol-1-yl)-5-ethylpyrimidine], in the test on measles virus, the MIC50 lay in the range of 0.5 to 5 µM (≈ 0.217 to 2.17 µg/mL).
Turning to `CCOc1nn(-c2ccc(Br)cn2)c(C)c1Cc1ccccc1` [example 41, 2-(4-benzyl-3-ethoxy-5-methyl-1H-pyrazol-1-yl)-5-bromopyridine], the MIC50 against measles virus was over 5 µM.
Still for that read-out and setting: next, `CCOc1nn(-c2ncc(CC)cn2)c(C)c1Cc1ccccc1` [example 25, 2-(4-benzyl-3-ethoxy-5-methyl-1H-pyrazol-1-yl)-5-ethylpyrimidine]: 0.0005 to 0.05 µM (≈ 0.000161 to 0.0161 µg/mL); `CCOc1nn(-c2ncc(CC)cn2)c(C)c1Oc1ccccc1C(F)(F)F` [example 82, 2-(3-ethoxy-5-methyl-4-(2-(trifluoromethyl)phenoxy)-1H-pyrazol-1-yl)-5-ethylpyrimidine]: 0.5 to 5 µM (≈ 0.196 to 1.96 µg/mL).
Same read-out and setting: with `CCOc1nn(-c2ncc(CC)cn2)c(C)c1C(=O)c1ccccc1` [example 150, (3-ethoxy-1-(5-ethylpyrimidin-2-yl)-5-methyl-1H-pyrazol-4-yl)(phenyl)methanone] the figure was 0.5 to 5 µM (≈ 0.168 to 1.68 µg/mL); with `CCc1ccc(-n2nc(OC(C)C)c(Cc3ccccc3)c2C)cc1` [example 132, 4-benzyl-1-(4-ethylphenyl)-3-isopropoxy-5-methyl-1H-pyrazole], 0.5 to 5 µM (≈ 0.167 to 1.67 µg/mL).
The same measure, in the same setting: next, `Cc1c(Cc2ccccc2)c(OC(C)C)nn1-c1ncc(C2CC2)cn1` [example 21, 2-(4-benzyl-3-isopropoxy-5-methyl-1H-pyrazol-1-yl)-5-cyclopropylpyrimidine]: 0.0005 to 0.05 µM (≈ 0.000174 to 0.0174 µg/mL); `CCOc1nn(-c2ncccn2)c(C)c1Cc1ccccc1` [example 123, 2-(4-benzyl-3-ethoxy-5-methyl-1H-pyrazol-1-yl)pyrimidine]: 0.5 to 5 µM (≈ 0.147 to 1.47 µg/mL).
In the case of `Cc1c(Oc2c(F)cccc2F)c(OC(C)C)nn1-c1cnc(C2CC2)cn1` [example 45, 2-cyclopropyl-5-(4-(2,6-difluorophenoxy)-3-isopropoxy-5-methyl-1H-pyrazol-1-yl)pyrazine], in the test with measles virus, the MIC50 lay within 0.0005 to 0.05 µM (≈ 0.000193 to 0.0193 µg/mL).
As to `Cc1c(Oc2c(F)cccc2F)c(OC(C)C)nn1-c1ncccn1` [example 74, 2-(4-(2,6-difluorophenoxy)-3-isopropoxy-5-methyl-1H-pyrazol-1-yl)pyrimidine], the MIC50 against measles virus lay within 0.5 to 5 µM (≈ 0.173 to 1.73 µg/mL).
On the same count and under the same terms, next, `Cc1c(Cc2ccccc2)c(OC(C)C)nn1-c1ncccc1C#N` [example 89, 2-(4-benzyl-3-isopropoxy-5-methyl-1H-pyrazol-1-yl)nicotinonitrile]: 0.5 to 5 µM (≈ 0.166 to 1.66 µg/mL); `CC(C)Oc1nn(-c2ccc(C3CC3)cn2)cc1Oc1ccccc1` [example 71, 5-cyclopropyl-2-(3-isopropoxy-4-phenoxy-1H-pyrazol-1-yl)pyridine]: 0.05 to 0.5 µM (≈ 0.0168 to 0.168 µg/mL); `CCOc1nn(-c2ccccn2)c(C)c1Cc1ccccc1Cl` [example 162, 2-(4-(2-chlorobenzyl)-3-ethoxy-5-methyl-1H-pyrazol-1-yl)pyridine]: over 5 µM.
The same measure, in the same setting: with `CCOc1nn(-c2ccccn2)c(C)c1-c1cccc(C(F)(F)F)c1` [example 158, 2-(3-ethoxy-5-methyl-4-(3-(trifluoromethyl)phenyl)-1H-pyrazol-1-yl)pyridine] the figure was over 5 µM; with `Cc1c(Oc2c(F)cccc2F)c(OC(C)C)nn1-c1ccc(C2CC2)cn1` [example 9, 5-cyclopropyl-2-(4-(2,6-difluorophenoxy)-3-isopropoxy-5-methyl-1H-pyrazol-1-yl)pyridine], 0.0005 to 0.05 µM (≈ 0.000193 to 0.0193 µg/mL).
On the same count and under the same terms, with `CCOc1nn(-c2ccc(Cl)cn2)c(C)c1Cc1ccccc1` [example 39, 2-(4-benzyl-3-ethoxy-5-methyl-1H-pyrazol-1-yl)-5-chloropyridine] the figure was 0.5 to 5 µM (≈ 0.164 to 1.64 µg/mL); with `CCC(C)Oc1nn(-c2ncc(C3CC3)cn2)c(C)c1Cc1ccccc1` (centres unmarked) [example 142, 2-(4-benzyl-3-sec-butoxy-5-methyl-1H-pyrazol-1-yl)-5-cyclopropylpyrimidine], 0.0005 to 0.05 µM (≈ 0.000181 to 0.0181 µg/mL).
`Cc1c(Oc2c(F)cccc2F)c(OC(C)C)nn1-c1ncc(C2CC2)cn1` [example 13, 5-cyclopropyl-2-(4-(2,6-difluorophenoxy)-3-isopropoxy-5-methyl-1H-pyrazol-1-yl)pyrimidine] yielded an MIC50 in the test on measles virus of 0.0005 to 0.05 µM (≈ 0.000193 to 0.0193 µg/mL).
`CCOc1nn(-c2ncc(Br)cn2)c(C)c1Cc1ccccc1` [example 42, 2-(4-benzyl-3-ethoxy-5-methyl-1H-pyrazol-1-yl)-5-bromopyrimidine] displayed an MIC50 against measles virus of 0.05 to 0.5 µM (≈ 0.0187 to 0.187 µg/mL).
On the same count and under the same terms, next, `Cc1c(Oc2c(F)cccc2F)c(OC(C)C)nn1-c1ncc(Br)cn1` [example 58, 5-bromo-2-(4-(2,6-difluorophenoxy)-3-isopropoxy-5-methyl-1H-pyrazol-1-yl)pyrimidine]: 0.0005 to 0.05 µM (≈ 0.000213 to 0.0213 µg/mL); `Cc1c(Oc2ccc(F)cc2)c(OC(C)C)nn1-c1ccc(C2CC2)cn1` [example 98, 5-cyclopropyl-2-(4-(4-fluorophenoxy)-3-isopropoxy-5-methyl-1H-pyrazol-1-yl)pyridine]: 0.5 to 5 µM (≈ 0.184 to 1.84 µg/mL).
Same read-out and setting: next, `CCOc1nn(-c2ncc(CC)cn2)c(C)c1-c1ccc(OC)cc1` [example 161, 2-(3-ethoxy-4-(4-methoxyphenyl)-5-methyl-1H-pyrazol-1-yl)-5-ethylpyrimidine]: 0.5 to 5 µM (≈ 0.169 to 1.69 µg/mL).
Same read-out and setting: with `CCc1cnc(-n2nc(OC(C)C)c(Cc3ccccc3OC)c2C)nc1` [example 101, 5-ethyl-2-(3-isopropoxy-4-(2-methoxybenzyl)-5-methyl-1H-pyrazol-1-yl)pyrimidine] the figure was 0.0005 to 0.05 µM (≈ 0.000183 to 0.0183 µg/mL); with `COc1cc(-c2ccc(C(C)(C)C)cc2)n(-c2ccccn2)n1` [example 146, 2-(5-(4-tert-butylphenyl)-3-methoxy-1H-pyrazol-1-yl)pyridine], over 5 µM.
